From patent US10457707B2, “Substituted urea depsipeptide analogs as activators of the CLPP endopeptidase” (priority 2015, dated 2019)
Converted amounts (≈) assume the structure as drawn. Like-named read-outs stand apart in the source and are kept apart here. *1 amine or outer side, *2 acyl side, *3 side chain or, on linkers, in order; H or OH if unused. Where a SMILES comes first, the peptide text is derived from it. Bridges are numbered along the chain shown (N, C = ends). [ ]: non-standard residue; d: D form. The star is where a group is joined. Phe(3,5-F2) = N[C@@H](Cc1cc(F)cc(F)c1)C(=O)O; NH(4-OCF3-phenyl) = FC(F)(F)Oc1ccc(N*)cc1; Pro(4S-Me) = C[C@@H]1CN[C@H](C(=O)O)C1; Pro(4R-Me) = C[C@H]1CN[C@H](C(=O)O)C1; aThr = C[C@H](O)[C@H](N)C(=O)O; X13 = c1nc2cc(N*)ccc2[nH]1; Pip = O=C(O)[C@@H]1CCCCN1; CO = O=C([*:1])[*:2]

Key:
[1] = tested on: Vero (kidney epithelial cells; ATCC CCL-81); experiment: Cytotoxicity assay (CellTiter-Glo cell viability, 72 hours); format: cell-based; conditions: Vero cells, 72 hours, growth inhibition; read-out: Cytotoxicity IC50
Procedure: (§1) Cytotoxicity was determined by determining the effect of compounds on cell viability. Vero (kidney epithelial cells; ATCC CCL-81) monolayers were trypsinized and 5000 cells/well were seeded (10-15% confluency) into white-wall, flat bottom 96 well microwell plates (Corning) using enriched Dulbecco's Modified Eagle's Medium (Hyclone:DMEM/High Glucose) containing 10% Fetal Bovine Serum (ATCC-30-2020). Plates were incubated overnight at 37° C. in the presence of 5% CO2. Drug-free media was then replaced with media containing serial dilutions of test compound or DMSO carrier. After an additional 72 hours of incubation, viability was indirectly measured using the CellTiter-Glo® Luminescent Cell Viability (Promega) assay. Assay plates were read at peak emission wavelength of 560 nm using a EnVision® Multilabel Plate Reader (Perkin Elmer) or PHERAstar FS Multilabel reader (BMG, Cary, N.C.). […] USA, www.graphpad.com]. For each experiment, compounds were tested in duplicate. IC50 values presented are the range of two biologically independent experiments.

[2] = tested on: Streptococcus pyogenes, ATCC 700294; experiment: Minimal inhibitory concentration assay (microbroth dilution); format: cell-based; conditions: Streptococcus pyogenes, ATCC700294, read-out: Minimal Inhibitory Concentrations S. pyogenes ATCC 700294
Outline: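 Plates with two-fold compound dilution series in broth were incubated overnight, aerobically, at 37° C, following CLSI microdilution guidance.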

[3] = tested on: Staphylococcus aureus, NRS70; experiment: as above; format: cell-based; conditions: Staphylococcus aureus, NRS70, read-out: Minimal Inhibitory Concentrations S. aureus NRS70
Outline: (§2)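 Visual read-out; MIC is the lowest drug concentration with no bacterial growth after overnight aerobic incubation at 37 °C. Compound was tested in two-fold dilutions starting at 200 μM final, with an inoculum of approximately 10^5 cfu/mL, following CLSI microdilution guidance.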

[4] = tested on: Staphylococcus aureus, ATCC 29213; experiment: as above; format: cell-based; conditions: ATCC29213, read-out: Minimal Inhibitory Concentrations S. aureus ATCC 29213
Outline: as §2

[5] = tested on: Bacillus subtilis, ATCC 23857; experiment: as above; format: cell-based; conditions: Bacillus subtilis, ATCC23857, read-out: Minimal Inhibitory Concentrations B. subtilis ATCC 23857
Outline: as §2

Sa-ClpP [6] = molecular target: T1, Sa-ClpP (Staphylococcus aureus, UniProt Q2G036); experiment: Sa-ClpP casein-BODIPY ClpP activation assay, method variant not marked in Table 5; format: biochemical, S. aureus; conditions: values without ** or † mark; assay variant not stated; read-out: ClpP Activation EC50
T1 construct: made in house; host or cells: E. coli BL21(DE3)
T1 sequence (Q2G036 1-195): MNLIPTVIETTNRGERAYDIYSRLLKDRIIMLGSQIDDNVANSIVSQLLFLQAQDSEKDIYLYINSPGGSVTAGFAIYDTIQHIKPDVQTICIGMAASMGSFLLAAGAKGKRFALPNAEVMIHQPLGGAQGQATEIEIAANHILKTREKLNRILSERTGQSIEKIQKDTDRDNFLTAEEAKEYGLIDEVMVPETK
Procedure: The compounds were assayed in a casein digestion assay in order to determine their effect on ClpP activation. Briefly, the assay was carried out using S. aureus ClpP (“Sa-ClpP”) overexpressed in E. coli BL21(DE3) and purified in a two-step process. Purity of the protein was assessed through SDS PAGE analysis. EC50 evaluations were conducted in triplicate in a 20 μl assay format using a method adapted from Maurizi et al. (Methods Enzymol. (1994) 244:314-331). Each well contained 10 μM saClpP, 25 μg/ml BODIPY FL casein (Invitrogen Corporation, San Diego, Calif.), and test compound in concentrations ranging between 0-1000 μM in assay buffer (50 mM Tris pH 8, 200 mM KCl, and 1 mM TCEP). The reaction took place at 37° C. Fluorescence (excitation 485 nm; emission 528 nm) was measured in five minute intervals over a 45 min period using a BioTek HT fluorescence microplate reader (BioTek Instruments, Inc., Winooski, Vt.). Velocity of each reaction was calculated and data was fit to a dose response curve using GraphPad Prism® software (GraphPad Software, Inc., La Jolla, Calif.). EC50 is the effective concentration of compound which causes 50% activation of S. aureus ClpP in the foregoing BODIPY FL casein assay.
Alternatively, the assay was carried out using EnzCheck Protease Assay (Molecular Probes, Catalog # E6638). The assay was performed in black 384 well, flat bottom, low volume plates (Greiner Bio-One, Monroe, N.C., catalog #784076). 10 μL of Tris*HCl buffer, pH 8.0 with 0.01% Triton X-100 was pipetted into each well using a Well-Mate (Thermo Scientific, Waltham, Mass.). 0.4 μL test compounds or controls (2% DMSO v/v) were added to each well using a Biomek FX liquid handling robot (Beckman Coulter, Indianapolis Ind.). After addition of test compounds and controls, 10 μL of master mix containing 2 μM Sa-ClpP and 2 μM substrate (Bodipy-FL labeled casein) in Tris*HCl buffer, pH 8.0 with 0.01% (v/v) Triton X-100, was pipetted into each well. All assays were performed in triplicate, under linear velocity conditions. Increase in fluorescent signal following activation of Sa-ClpP by test compounds and controls was measured over time period of 30 mins using filters with excitation at 485±15 nm and emission at 520±25 nm on a PHERAstar FS Multilabel reader (BMG, Cary, N.C.). […] Data analysis was done by measuring rate of casein degradation over time (slopes). Computed degradation rates (slopes) were normalized to positive (ADEP4) or negative (DMSO) controls. Using nonlinear regression curve fitting EC50 values and % activation were determined using the equation “log [agonist] vs. Response-variable slope (four parameters)-symmetrical” in the program Prism 6 (GraphPad Software, La Jolla, Calif. USA, www.graphpad.com).
Substituted urea depsipetide analogs were synthesized as described above. The EC50 for ClpP activation was determined in the Sa-ClpP in casein-BODIPY assay as described above. The IC50 for ADEP displacement was determined in the ADEP displacement fluorescent polarization assay as described above; and the IC50 for growth inhibition was determined in the Vero cell cytotoxicity assay as described above. The compound number corresponds to the compound numbers used in Tables 1-4 and the experimental examples described above.

Sa-ClpP [7] = molecular target: T1, Sa-ClpP; experiment: ADEP displacement fluorescence polarization assay (FP probe ADEP 2591); format: binding
Procedure: A fluorescence polarization (FP) assay was used to determine the activity of the disclosed compounds in displacing an ADEP analogue from ClpP. Briefly, the assay was performed in black 384 well, flat bottom, low volume plates (Greiner Bio-One, Monroe, N.C., catalog #784076). 20 μL of a pre-equilibrated (1 hr, room temperature) master mix (15 μM Sa-ClpP, 2% DMSO (v/v) and 50 nM FP probe in Tris*HCl, pH 8.0)) was pipetted into each well using a Well-Mate (Thermo Scientific, Waltham, Mass.). Sa-ClpP was prepared as described above for the ClpP activation assay. The FP probe was ADEP 2591 (structure shown above). The ADEP 2591 comprises a TAMRA fluorophore linked to a core based on modified ADEP 2378 via a short alkyl linker. Using pin transfer, approximately 0.4 μL (2% v/v DMSO) of each compound or control was added per well. After addition of compounds and controls, plates were allowed to incubate for an additional 120 minutes at room temperature. All assays were performed in triplicate. Polarization was monitored using an EnVision Multilabel reader (Perkin-Elmer, Waltham, Mass.) by exciting the FP probe at 530±25 nm, and monitoring fluorescence intensity of both parallel and perpendicular polarized light at 579±25 nm. Readout was in millipolarization units (mP).
Data collected was normalized to values obtained from positive (200 μM ADEP 2378) or negative (DMSO) controls. Curves were fit with non-linear regression using the equation “log [inhibitor] vs. Response-variable slope (four parameters)-symmetrical” in the program Prism 6 (GraphPad Software, La Jolla, Calif. USA, www.graphpad.com). The structures for ADEP 2378 and ADEP 2591 are shown above. ADEP 2378 is (E)-N—((S)-1-(((2R,6S,8aS,14aS,20S,23aS)-2,6-dimethyl-5,8,14,19,23-pentaoxooctadecahydro-1H,5H,14H,19H-pyrido[2,1-i]dipyrrolo[2,1-c:2′,1′-1][1]oxa[4,7,10,13]tetraazacyclohexadecin-20-yl)amino)-1-oxo-3-phenylpropan-2-yl)pent-2-enamide. ADEP 2591 is 5-(3-(3-((6S,9S,11aS,17S,20aS)-6,10-dimethyl-5,8,11,16,20-pentaoxo-17-((S)-2-((E)-pent-2-enamido)-3-phenylpropanamido)hexadecahydro-1H,5H,16H-dipyrrolo[2,1-c:2′,1′-1][1]oxa[4,7,10,13]tetraazacyclohexadecin-9-yl)propyl)thioureido)-2-(6-(dimethylamino)-3-(dimethyliminio)-3H-xanthen-9-yl)benzoate.

[8] = Cytotoxicity assay (CellTiter-Glo cell viability, 72 hours); format: cell-based; conditions: African green monkey; Vero cells, 72 hours, growth inhibition; read-out: Cytotoxicity IC50
Procedure: as §1

[9] = displacement of FP probe ADEP 2591 from Sa-ClpP, read-out: ADEP Displacement IC50

`C[C@H]1C[C@H]2C(=O)O[C@@H](C)[C@H](NC(=O)[C@H](Cc3cc(F)cc(F)c3)NC(=O)Nc3ccc(OC(F)(F)F)cc3)C(=O)N3CCC[C@H]3C(=O)N3CCCC[C@H]3C(=O)N[C@@H](C)C(=O)N2C1` [Compound 22, (S)-3-(3,5-difluorophenyl)-2-(3-(4-(trifluoromethoxy)phenyl)ureido)-N-((2R,6S,8aS,14aS,20S,21S,23aS)-2,6,21-trimethyl-5,8,14,19,23-pentaoxooctadecahydro-1H,5H,14H,19H-pyrido[2,1-i]dipyrrolo[2,1-c:2′,1′-l][1]oxa[4,7,10,13]tetraazacyclohexadecin-20-yl)propanamide] ({NH(4-OCF3-phenyl)-CO}-[Phe(3,5-F2)][aThr]P[Pip]A[Pro(4S-Me)]; ester 2-C) showed an IC50 [1] of 52.3 ± 7.7 µM.
Compound `Cc1ccc(NC(=O)N[C@@H](Cc2cc(F)cc(F)c2)C(=O)N[C@H]2COC(=O)[C@@H]3C[C@@H](C)CN3C(=O)[C@H](C)NC(=O)[C@@H]3CCCCN3C(=O)[C@@H]3CCCN3C2=O)cc1` [Compound 24, (S)-3-(3,5-difluorophenyl)-N-((2R,6S,8aS,14aS,20S,23aS)-2,6-dimethyl-5,8,14,19,23-pentaoxooctadecahydro-1H,5H,14H,19H-pyrido[2,1-i]dipyrrolo[2,1-c:2′,1′-l][1]oxa[4,7,10,13]tetraazacyclohexadecin-20-yl)-2-(3-(p-tolyl)ureido)propanamide] has an MIC [2] of 0.5 µM (≈ 0.397 µg/mL), an MIC [3] of 0.5 µM (≈ 0.397 µg/mL) and an MIC [4] of 0.5 µM (≈ 0.397 µg/mL). The MIC [5] was 2.2 µM (≈ 1.75 µg/mL) and the IC50 [1] was 93.8 ± 4.8 µM.
Work on `C[C@@H]1C[C@H]2C(=O)O[C@@H](C)[C@H](NC(=O)[C@H](Cc3cc(F)cc(F)c3)NC(=O)Nc3ccc4[nH]cnc4c3)C(=O)N3CCC[C@H]3C(=O)N3CCCC[C@H]3C(=O)N[C@@H](C)C(=O)N2C1` [Compound 303, (S)-2-(3-(1H-benzo[d]imidazol-6-yl)ureido)-3-(3,5-difluorophenyl)-N-((2R,6S,8aS,14aS,20S,21S,23aS)-2,6,21-trimethyl-5,8,14,19,23-pentaoxooctadecahydro-1H,5H,14H,19H-pyrido[2,1-i]dipyrrolo[2,1-c:2′,1′-l][1]oxa[4,7,10,13]tetraazacyclo-hexadecin-20-yl)propanamide] ({X13-CO}-[Phe(3,5-F2)][aThr]P[Pip]A[Pro(4R-Me)]; ester 2-C) yielded an EC50 (Sa-ClpP [6]) of 1430 ± 30 nM, an IC50 (Sa-ClpP [7]) of 11.1 ± 0.4 µM and an IC50 at 72 h [8] greater than 100 µM.
“sodium (2R,6S,8aS,14aS,16R,20S,21S,23aS)-20-((S)-3-(3,5-difluorophenyl)-2-(3-(p-tolyl)ureido)propanamido)-2,6,21-trimethyl-5,8,14,19,23-pentaoxooctadecahydro-1H,5H,14H,19H-pyrido[2,1-i]dipyrrolo[2,1-c:2′,1′-l][1]oxa[4,7,10,13]tetraazacyclohexadecin-16-yl phosphate [Compound 191]” showed an EC50 (Sa-ClpP [6]) of 700 ± 30 nM and an IC50 (Sa-ClpP [7]; [9]) of 8.56 ± 0.38 µM.
For “sodium (R)-1-((2R,6S,9S,11aS,17S,18S,20aS)-17-((S)-3-(3,5-difluorophenyl)-2-(3-(p-tolyl)ureido)propanamido)-2,6,10,18-tetramethyl-5,8,11,16,20-pentaoxohexadecahydro-1H,5H,16H-dipyrrolo[2,1-c:2′,1′-l][1]oxa[4,7,10,13]tetraazacyclohexadecin-9-yl)ethyl phosphate [Compound 193]”, the EC50 (Sa-ClpP [6]) was 770 ± 50 nM and the IC50 (Sa-ClpP [7]; [9]) was 7.15 ± 0.33 µM.
